The source of these data is publication PMC11284790, “Targeting Myeloperoxidase Ameliorates Gouty Arthritis: A Virtual Screening Success Story” (Journal of Medicinal Chemistry, 2024).

The term inhibition denotes the percentage by which the read-out fell short of the control. The term IC50 denotes the concentration at which inhibition is half-maximal. The low end stands for greater potency, the high end for weaker potency.

Test [1] addresses T1, Human leukocyte MPO (Homo sapiens, UniProt P05164). The test can be described thus: MPO peroxidatic activity assay (AmplexRed oxidation). On the set-up: Human leukocyte MPO (EC 1.7.1.11) was purchased from Planta Natural Products; purchased Planta Natural Products (Vienna, Austria); host or cells: human leukocytes. It counts as biochemical. The protocol:
MPO peroxidase activity was kinetically monitored using the artificial peroxidase substrate AmplexRed, which is oxidized to resorufin and can be detected by fluorescence.[34] Reactions were carried out in phosphate buffer (50 mM, pH 7.4), MPO (100 pM), cetyltrimethylammonium chloride (0.03%), diethylenetriaminepentaacetic acid (100 μM), AmplexRed (30 μM), and compounds (20 μM in 0.3% DMSO). The reaction was started by adding 2 μM hydrogen peroxide. The reaction product was assessed by fluorescence at λex = 530 and λem = 580 nm. The initial velocity was calculated by the slope of the linear regression in the first minutes of reaction. Inhibition is represented as a percentage of the control (vehicle).

For test [2], the target named is T1, Human leukocyte MPO. As to the kind of experiment: MPO chlorinating activity assay (taurine chloramine/TMB). On the set-up: Human leukocyte MPO (EC 1.7.1.11) was purchased from Planta Natural Products; purchased Planta Natural Products (Vienna, Austria); host or cells: human leukocytes. It is filed as biochemical. As to conditions: for chlorinating/peroxidatic activity inhibition ratio: ratio of % inhibition at 20 μM, ~1 indicates true enzyme inhibitor; for IC50: pH 7.4. How it is done: Chlorinating activity was carried out in phosphate buffer (20 mM, pH 7.4). Compounds (20 μM) were dissolved in 0.03% DMSO, MPO (10 nM), diethylenetriaminepentaacetic acid (100 μM), cetyltrimethylammonium chloride (0.03%), NaCl (140 mM), and taurine (5 mM).[31] This mixture was incubated at 37 °C for 15 min before adding 40 μM hydrogen peroxide. The reaction ran for 8 min and was then stopped by catalase (20 μg/mL). Oxidation of TMB (2 mM) (3,3,5,5-tetramethylbenzidine) by taurine chloroamine catalyzed by iodide (100 μM) was quantified at 650 nm.[33] Results were expressed as a percentage of the control (vehicle). IC50 was calculated by nonlinear regression using the Hill equation present in GraphPad Prism 5 software.

Test [3] in a line: Taurine chloroamine scavenger assay. As to conditions: 15 min at 37 °C, TMB readout. How it is done: Taurine chloramine was prepared by mixing hypochlorous acid (2.81 mM) with taurine (5 mM), cetyltrimethylammonium chloride (0.03%), NaCl (140 mM), and diethylenetriaminepentaacetic acid (100 μM) in phosphate buffer (20 mM, pH 7.4). The system was kept at 37 °C for 5 min for complete chloramine taurine formation. The compounds were added to this mixture and incubated for 15 min at 37 °C. Taurine chloramine was quantified by the oxidation of TMB (2 mM) catalyzed by iodide (100 μM).[33]

The next test relates to dHL-60 cells. As to the kind of experiment: Cellular production of HOCl, PMA-activated dHL-60 cells. It counts as cell-based, human. The conditions noted are these: 20 μM compound, 100 nM PMA, 1 h. How it is done: Human promyelocytic leukemic cells (HL-60) (BCRJ, RJ, Brazil) were cultivated in RPMI with fetal bovine serum (10%), penicillin (62 μg/mL), and streptomycin (100 μg/mL) at 37 °C in 5% CO2 atmosphere. HL-60 cells were differentiated to neutrophil-like (dHL-60) by DMSO (1.25%) during 4 days.[25]
(§1) Measurement of HOCl production by 1 × 10^6 dHL-60 or neutrophils was carried out in PBS (10 mM Na2HPO4, 2 mM KH2PO4, 0.5 mM MgCl2, 1 mM CaCl2, 140 mM NaCl, 5.5 mM dextrose, 100 μM diethylenetriaminepentaacetic acid, 5 mM taurine) in the presence of the compounds (20 μM in 0.3% DMSO) or 0.3% DMSO (control). Cells were activated with phorbol myristate acetate (100 nM) at 37 °C for 1 h. After incubation, cells were centrifuged at 1400 rpm for 10 min, and the supernatant was diluted threefold. Finally, 240 μL of this supernatant was added to 60 μL acetate buffer (400 mM, pH 5.4) containing NaI (100 μM) and TMB (2 mM in DMFO 10%). Taurine chloramine was quantified by TMB oxidation at 655 nm.[33] Inhibition of HOCl production was calculated as the percentage of the control (vehicle).

For test [4], the system named is human peripheral blood neutrophils. As to the kind of experiment: Cellular production of HOCl, PMA-activated peripheral blood neutrophils. It counts as cell-based. The conditions noted are these: 20 μM compound, 100 nM PMA, 1 h. How it is done: Human neutrophils were obtained from healthy individuals as previously described.[24] The experiments were approved by the local ethics committee (CEPSH-ICB 1435/18).
as §1

[5] abbreviates: 20 μM compound, 100 pM MPO, 30 μM AmplexRed, 2 μM H2O2, pH 7.4, read-out: % Inhibition (at 20 μM) Peroxidatic.
[6] abbreviates: supplementary csv copy of Table 1, read-out: % Inhibition (Peroxidatic).
The mark [7] stands for this setting: 20 μM compound, 10 nM MPO, 140 mM NaCl, 5 mM taurine, 40 μM H2O2, pH 7.4, read-out: % Inhibition (at 20 μM) Chlorinating.
Setting [8] is: supplementary csv copy of Table 1, read-out: % Inhibition (Chlorinating).
Where [9] appears, read: 20 μM compound, 10 nM MPO, 140 mM NaCl, 5 mM taurine, 40 μM H2O2, pH 7.4.
Where [10] appears, read: supplementary csv copy of Table 1.
[11] abbreviates: 20 μM compound, 100 pM MPO, 30 μM AmplexRed, 2 μM H2O2, pH 7.4.

T1 sequence (P05164 279-745 limits assumed): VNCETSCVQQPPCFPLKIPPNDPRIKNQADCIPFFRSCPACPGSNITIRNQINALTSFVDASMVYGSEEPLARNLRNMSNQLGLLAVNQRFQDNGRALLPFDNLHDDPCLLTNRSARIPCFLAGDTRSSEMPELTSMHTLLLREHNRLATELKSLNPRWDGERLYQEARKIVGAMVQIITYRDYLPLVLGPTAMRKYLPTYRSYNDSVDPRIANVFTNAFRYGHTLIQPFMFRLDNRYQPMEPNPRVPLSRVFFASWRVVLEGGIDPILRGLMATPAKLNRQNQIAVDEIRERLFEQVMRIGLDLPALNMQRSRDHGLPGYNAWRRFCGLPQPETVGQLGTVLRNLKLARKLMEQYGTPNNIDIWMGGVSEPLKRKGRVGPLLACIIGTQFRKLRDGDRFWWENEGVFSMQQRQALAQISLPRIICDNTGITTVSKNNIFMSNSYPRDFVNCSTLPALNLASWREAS
T1 sequence (P05164 165-278 limits assumed): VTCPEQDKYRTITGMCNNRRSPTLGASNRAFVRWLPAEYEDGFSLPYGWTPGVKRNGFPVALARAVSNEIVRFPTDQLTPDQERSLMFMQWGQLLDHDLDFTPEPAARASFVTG

Regarding `CC1=Nc2ccc(Cl)cc2-c2[nH]c3ccccc3c2N1` [RL1], the inhibition at 20 µM at Human leukocyte MPO [1] (setting [5]) was found to be 81 ± 15.1%; at Human leukocyte MPO [1] (setting [6]), 81 ± 15.1%; on Human leukocyte MPO [2] (setting [7]) it was 50.2 ± 4%; on Human leukocyte MPO [2] (setting [8]), 50.2 ± 4%.
With `CC1CCc2sc3c(c2C1)c1ncnn1c1nnc(S)n31` (centres unmarked) [RL9], the inhibition at 20 µM at Human leukocyte MPO [1] (setting [5]) amounted to 42.1 ± 7.9%; on Human leukocyte MPO [1] (setting [6]), 42.1 ± 7.9%; at Human leukocyte MPO [2] (setting [7]), 92 ± 3.2%; at Human leukocyte MPO [2] (setting [8]) it was 92 ± 3.2%. Also, the “chlorinating/peroxidatic activity inhibition ratio” value at Human leukocyte MPO [2] is recorded as “high”.
Consider `COc1cc(/C=N/NC(=O)c2ccoc2C)ccc1OCCN1CCCCC1` [RL15], for which the “% Inhibition (at 20 μM) Chlorinating” value on Human leukocyte MPO [2] (setting [9]) is “INACTIVE”. The “% Inhibition (Chlorinating)” value at Human leukocyte MPO [2] (setting [10]) is “INACTIVE”.
For `CCOC(=O)C(Cc1ccc(O)cc1)NC1=CC(=O)C(=O)c2ccccc21` (centres unmarked) [RL16], at Human leukocyte MPO [1] (setting [11]), the “% Inhibition (at 20 μM) Peroxidatic” value was “inhibited exclusively the peroxidatic assay”. Further, the inhibition at 20 µM on Human leukocyte MPO [1] (setting [5]) and at Human leukocyte MPO [1] (setting [6]) was 67.1 ± 8.1% throughout. Besides, the “% Inhibition (at 20 μM) Chlorinating” value at Human leukocyte MPO [2] (setting [9]) is “INACTIVE”. The “% Inhibition (Chlorinating)” value at Human leukocyte MPO [2] (setting [10]) is given as “INACTIVE”.
For `O=C1ON=C(c2ccccc2)/C1=C\c1cccc(O)c1` [RL17], the inhibition at 20 µM on Human leukocyte MPO [1] (setting [5]) was 24 ± 4.1%; on Human leukocyte MPO [1] (setting [6]), 24 ± 4.1%; at Human leukocyte MPO [2] (setting [7]) it was 63 ± 6.2%; on Human leukocyte MPO [2] (setting [8]), 63 ± 6.2%. For the same compound, at Human leukocyte MPO [2], the “chlorinating/peroxidatic activity inhibition ratio” value is “high”.
`COc1ccc(C(=O)Nc2ccc(-c3nnc(S)o3)cc2)cc1` [RL18]: the “scavenger activity toward taurine chloramine” value in test [3] is “scavenger capacity”. Moreover, the “% Inhibition (at 20 μM) Peroxidatic” value on Human leukocyte MPO [1] (setting [11]) was “INACTIVE”. Also, the “% Inhibition (Peroxidatic)” value on Human leukocyte MPO [1] (setting [10]) was “INACTIVE”. Moreover, the “inhibition of HOCl production in dHL-60 cells” value in the test with dHL-60 cells is given as “no effect”. The “inhibition of HOCl production in peripheral blood neutrophils” value in test [4] is recorded as “no effect”. Moreover, the IC50 against Human leukocyte MPO [2] (10 nM MPO, 140 mM NaCl) was determined as 12 µM. Moreover, the “% Inhibition (at 20 μM) Chlorinating” value on Human leukocyte MPO [2] (setting [9]) is “active against chlorinating activity only”. Also, the inhibition at 20 µM on Human leukocyte MPO [2] (setting [7]) and on Human leukocyte MPO [2] (setting [8]) was 73 ± 19.7% in each case. Further, the “chlorinating/peroxidatic activity inhibition ratio” value at Human leukocyte MPO [2] is on record as “high”.
Turning to `N#CC1=C(N)Oc2c(c(=O)sc3ccccc23)C1c1ccc(F)cc1` (centres unmarked) [RL20], on Human leukocyte MPO [1] (setting [11]), the “% Inhibition (at 20 μM) Peroxidatic” value is “inhibited exclusively the peroxidatic assay”. The inhibition at 20 µM at Human leukocyte MPO [1] (setting [5]) and on Human leukocyte MPO [1] (setting [6]) was 34 ± 4.3% in each case. The “% Inhibition (at 20 μM) Chlorinating” value at Human leukocyte MPO [2] (setting [9]) is recorded as “INACTIVE”. Further, the “% Inhibition (Chlorinating)” value at Human leukocyte MPO [2] (setting [10]) was “INACTIVE”.
Regarding `CCc1n[nH]c2c1C(c1ccc(O)c(OC)c1)C(C#N)=C(N)O2` (centres unmarked) [RL23], the inhibition at 20 µM on Human leukocyte MPO [1] (setting [5]) was found to be 25.1 ± 3.2%; on Human leukocyte MPO [1] (setting [6]), 25.1 ± 3.2%; at Human leukocyte MPO [2] (setting [7]), 57.8 ± 13.9%; at Human leukocyte MPO [2] (setting [8]), 57.8 ± 13.9%.
`CCOC(=O)C1=C(N)Oc2cc(O)ccc2C1c1ccc(F)cc1F` (centres unmarked) [RL24]: the inhibition at 20 µM is 59.1 ± 2.9% on Human leukocyte MPO [1] (setting [5]), 59.1 ± 2.9% at Human leukocyte MPO [1] (setting [6]), 40.1 ± 5.5% at Human leukocyte MPO [2] (setting [7]) and 40.1 ± 5.5% on Human leukocyte MPO [2] (setting [8]).
On to `O=c1c2cnc3cc(C(F)(F)F)ccc3c2sc2nncn12` [RL25], for which the “% Inhibition (at 20 μM) Peroxidatic” value at Human leukocyte MPO [1] (setting [11]) was “INACTIVE”. Moreover, the “% Inhibition (Peroxidatic)” value on Human leukocyte MPO [1] (setting [10]) is “INACTIVE”. Also, the “% Inhibition (at 20 μM) Chlorinating” value on Human leukocyte MPO [2] (setting [9]) is “INACTIVE”. In addition, the “% Inhibition (Chlorinating)” value on Human leukocyte MPO [2] (setting [10]) is “INACTIVE”.
Regarding `CCCOc1ccc(C2C(C#N)=C(N)SC(N)=C2C#N)cc1OC` [RL26], in test [3], the “scavenger activity toward taurine chloramine” value is reported as “decreased both taurine chloroamine”. Also, the inhibition at 20 µM was 78.7 ± 4.2% at Human leukocyte MPO [1] (setting [5]), 78.7 ± 4.2% at Human leukocyte MPO [1] (setting [6]), 81 ± 5.8% on Human leukocyte MPO [2] (setting [7]) and 81 ± 5.8% on Human leukocyte MPO [2] (setting [8]). The same compound displayed an IC50 against Human leukocyte MPO [2] (10 nM MPO, 140 mM NaCl) of 12.6 µM.
Regarding `CC1CCCc2sc3nc(S)n(N)c(=O)c3c21` (centres unmarked) [RL27], the inhibition at 20 µM was 29.5 ± 2.9% at Human leukocyte MPO [1] (setting [5]), 29.5 ± 2.9% on Human leukocyte MPO [1] (setting [6]), 18.6 ± 1.6% at Human leukocyte MPO [2] (setting [7]) and 18.6 ± 1.6% at Human leukocyte MPO [2] (setting [8]).
On to `CCCNc1ncnc2cc(-c3ccc(OC)cc3)sc12` [RL28], for which the “% Inhibition (at 20 μM) Peroxidatic” value at Human leukocyte MPO [1] (setting [11]) was “INACTIVE”. The “% Inhibition (Peroxidatic)” value on Human leukocyte MPO [1] (setting [10]) is “INACTIVE”. The “% Inhibition (at 20 μM) Chlorinating” value at Human leukocyte MPO [2] (setting [9]) is “INACTIVE”. Further, the “% Inhibition (Chlorinating)” value on Human leukocyte MPO [2] (setting [10]) is given as “INACTIVE”.
